Laboratory results: patent US7528284B2, “Method for producing xylylenediamine (XDA)” (BASF Aktiengesellschaft, priority 2003, dated 2009)

Test: Investigations of solubility of IPN in different solvents
Format: physicochemical
Description: Investigations of Solubility of IPN in Different Solvents
At 60° C., the solubility of IPN in mesitylene or pseudocumene is in each case below 10% by weight.

N#Cc1cccc(C#N)c1 [IPN, 1,3-dicyanobenzene]
solubility of IPN in NMP (at 60° C.): approx. 26 % by weight | solubility of IPN in NMP (at 90° C.): approx. 41 % by weight | solubility of IPN in mesitylene (at 60° C.): below 10 % by weight | solubility of IPN in mesitylene (at 90° C.): 12 % by weight | solubility of IPN in pseudocumene (at 60° C.): below 10 % by weight | solubility of IPN in pseudocumene (at 90° C.): 20 % by weight
